Data taken from the kinase profiling compilation of Christmann-Franck et al. (2016).

Tests used:
Assay in all cases: KINOMEscan competition binding
Conditions in all cases: compound 10.0 µM
[1] = biological target: PIK3C2B (human) (UniProt O00750)
[2] = biological target: MAP4K1 (human) (UniProt Q92918)
[3] = biological target: MST1R (human) (UniProt Q04912)
[4] = biological target: TESK1 (human) (UniProt Q15569)
[5] = biological target: PIP4K2C (human) (UniProt Q8TBX8)
[6] = biological target: PTK6 (human) (UniProt Q13882)
[7] = biological target: GRK7 (human) (UniProt Q8WTQ7)
[8] = biological target: STK17A (human) (UniProt Q9UEE5)
[9] = biological target: DCLK2 (human) (UniProt Q8N568)
[10] = biological target: TEC (human) (UniProt P42680)
[11] = biological target: ERBB3 (human) (UniProt P21860)
[12] = biological target: STK33 (human) (UniProt Q9BYT3)
[13] = biological target: PRKACB (human) (UniProt P22694)
[14] = biological target: MYO3B (human) (UniProt Q8WXR4)
[15] = biological target: SIK2 (human) (UniProt Q9H0K1)
[16] = biological target: SRC (human) (UniProt P12931)
[17] = tested on: LRRK2 (human), Q5S007 [G2019S]
[18] = biological target: WEE2 (human) (UniProt P0C1S8)
[19] = biological target: MAST1 (human) (UniProt Q9Y2H9)
[20] = biological target: PLK2 (human) (UniProt Q9NYY3)
[21] = biological target: MAPK12 (human) (UniProt P53778)
[22] = biological target: CHEK2 (human) (UniProt O96017)
[23] = biological target: CSNK1D (human) (UniProt P48730)
[24] = biological target: HIPK3 (human) (UniProt Q9H422)
[25] = biological target: ACVR2B (human) (UniProt Q13705)
[26] = biological target: TNNI3K (human) (UniProt Q59H18)
[27] = biological target: PRKAA2 (human) (UniProt P54646)
[28] = biological target: CDKL3 (human) (UniProt Q8IVW4)
[29] = biological target: FGFR2 (human) (UniProt P21802)
[30] = biological target: AXL (human) (UniProt P30530)
[31] = biological target: CLK1 (human) (UniProt P49759)
[32] = biological target: STK25 (human) (UniProt O00506)
[33] = biological target: NIM1 (human) (UniProt Q8IY84)
[34] = biological target: LRRK2 (human) (UniProt Q5S007)
[35] = biological target: ULK3 (human) (UniProt Q6PHR2)
[36] = biological target: CSNK2A1 (human) (UniProt P68400)
[37] = biological target: MAP3K13 (human) (UniProt O43283)
[38] = biological target: FYN (human) (UniProt P06241)

CLK1 (human), sequence (P49759 whole entry, looked up): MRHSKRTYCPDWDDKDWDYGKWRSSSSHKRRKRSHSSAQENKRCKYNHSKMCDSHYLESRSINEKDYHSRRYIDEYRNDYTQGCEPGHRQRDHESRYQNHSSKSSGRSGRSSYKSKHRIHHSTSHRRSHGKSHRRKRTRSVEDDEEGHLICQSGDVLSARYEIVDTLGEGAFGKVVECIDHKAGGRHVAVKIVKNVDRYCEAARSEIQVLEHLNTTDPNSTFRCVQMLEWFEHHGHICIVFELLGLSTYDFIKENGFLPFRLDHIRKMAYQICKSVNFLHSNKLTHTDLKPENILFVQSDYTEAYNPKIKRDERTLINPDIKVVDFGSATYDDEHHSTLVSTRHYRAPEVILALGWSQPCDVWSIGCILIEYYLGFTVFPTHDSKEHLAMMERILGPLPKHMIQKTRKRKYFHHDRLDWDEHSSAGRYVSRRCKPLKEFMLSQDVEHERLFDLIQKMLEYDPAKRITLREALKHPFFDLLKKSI
ACVR2B (human), sequence (Q13705 whole entry, looked up): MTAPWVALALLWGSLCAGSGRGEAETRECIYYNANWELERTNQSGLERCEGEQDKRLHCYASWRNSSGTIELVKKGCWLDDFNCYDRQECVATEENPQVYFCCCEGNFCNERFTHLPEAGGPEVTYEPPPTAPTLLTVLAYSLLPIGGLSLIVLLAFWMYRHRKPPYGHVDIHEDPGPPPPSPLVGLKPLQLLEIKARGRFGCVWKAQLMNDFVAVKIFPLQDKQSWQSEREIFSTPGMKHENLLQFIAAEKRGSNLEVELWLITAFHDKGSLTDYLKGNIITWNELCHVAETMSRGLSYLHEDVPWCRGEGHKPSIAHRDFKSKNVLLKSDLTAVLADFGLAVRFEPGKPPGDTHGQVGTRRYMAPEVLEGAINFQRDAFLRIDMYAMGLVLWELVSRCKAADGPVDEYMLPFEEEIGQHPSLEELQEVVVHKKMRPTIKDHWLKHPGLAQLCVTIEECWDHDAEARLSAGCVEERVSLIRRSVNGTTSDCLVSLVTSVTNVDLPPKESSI
CSNK1D (human), sequence (P48730 whole entry, looked up): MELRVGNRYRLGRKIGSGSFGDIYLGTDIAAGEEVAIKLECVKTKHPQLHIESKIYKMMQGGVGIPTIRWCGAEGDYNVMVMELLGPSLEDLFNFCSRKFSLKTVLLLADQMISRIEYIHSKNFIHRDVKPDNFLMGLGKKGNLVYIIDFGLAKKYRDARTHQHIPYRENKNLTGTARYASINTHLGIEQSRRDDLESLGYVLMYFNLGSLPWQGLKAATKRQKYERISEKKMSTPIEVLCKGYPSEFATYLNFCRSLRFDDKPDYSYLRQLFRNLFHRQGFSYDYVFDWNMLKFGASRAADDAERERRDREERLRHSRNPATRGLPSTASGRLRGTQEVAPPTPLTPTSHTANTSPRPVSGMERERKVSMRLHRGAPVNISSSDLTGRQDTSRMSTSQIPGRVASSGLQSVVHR
MAST1 (human), sequence (Q9Y2H9 whole entry, looked up): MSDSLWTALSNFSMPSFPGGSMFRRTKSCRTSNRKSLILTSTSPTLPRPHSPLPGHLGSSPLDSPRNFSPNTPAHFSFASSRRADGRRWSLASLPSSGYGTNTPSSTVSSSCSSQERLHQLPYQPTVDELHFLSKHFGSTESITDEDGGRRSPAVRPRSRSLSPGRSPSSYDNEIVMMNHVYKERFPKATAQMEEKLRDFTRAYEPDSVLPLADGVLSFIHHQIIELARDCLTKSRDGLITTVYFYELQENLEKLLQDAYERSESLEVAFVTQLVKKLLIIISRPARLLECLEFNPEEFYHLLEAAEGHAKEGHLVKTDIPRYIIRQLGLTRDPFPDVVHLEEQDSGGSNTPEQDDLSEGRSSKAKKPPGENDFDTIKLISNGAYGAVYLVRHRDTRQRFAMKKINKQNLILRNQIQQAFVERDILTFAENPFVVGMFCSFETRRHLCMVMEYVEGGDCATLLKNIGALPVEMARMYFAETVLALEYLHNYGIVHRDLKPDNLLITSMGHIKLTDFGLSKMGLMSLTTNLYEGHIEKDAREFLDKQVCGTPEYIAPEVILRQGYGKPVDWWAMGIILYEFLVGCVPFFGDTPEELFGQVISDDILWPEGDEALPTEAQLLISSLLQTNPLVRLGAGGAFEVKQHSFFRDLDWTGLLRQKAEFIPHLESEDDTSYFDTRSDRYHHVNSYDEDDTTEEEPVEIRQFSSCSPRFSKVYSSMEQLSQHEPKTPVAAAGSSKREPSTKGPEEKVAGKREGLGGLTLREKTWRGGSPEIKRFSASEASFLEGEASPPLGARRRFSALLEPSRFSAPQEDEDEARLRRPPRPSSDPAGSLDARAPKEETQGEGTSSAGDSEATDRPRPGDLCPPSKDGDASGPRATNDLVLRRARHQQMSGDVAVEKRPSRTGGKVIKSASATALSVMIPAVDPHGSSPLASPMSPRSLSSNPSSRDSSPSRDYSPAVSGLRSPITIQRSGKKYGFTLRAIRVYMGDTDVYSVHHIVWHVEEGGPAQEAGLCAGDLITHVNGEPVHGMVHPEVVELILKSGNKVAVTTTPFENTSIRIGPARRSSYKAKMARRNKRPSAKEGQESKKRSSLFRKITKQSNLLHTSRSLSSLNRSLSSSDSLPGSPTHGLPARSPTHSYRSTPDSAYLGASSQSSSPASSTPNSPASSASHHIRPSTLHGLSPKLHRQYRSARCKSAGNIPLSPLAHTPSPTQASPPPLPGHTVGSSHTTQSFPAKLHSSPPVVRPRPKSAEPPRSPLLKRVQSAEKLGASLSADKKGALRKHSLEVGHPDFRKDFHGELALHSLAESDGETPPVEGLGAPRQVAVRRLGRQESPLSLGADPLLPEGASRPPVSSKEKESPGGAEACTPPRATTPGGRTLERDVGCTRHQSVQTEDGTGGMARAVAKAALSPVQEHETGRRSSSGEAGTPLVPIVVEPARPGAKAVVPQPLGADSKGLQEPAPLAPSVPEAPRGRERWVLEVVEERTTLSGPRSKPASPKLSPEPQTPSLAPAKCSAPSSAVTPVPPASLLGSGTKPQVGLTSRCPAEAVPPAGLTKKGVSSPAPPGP
MAPK12 (human), sequence (P53778 whole entry, looked up): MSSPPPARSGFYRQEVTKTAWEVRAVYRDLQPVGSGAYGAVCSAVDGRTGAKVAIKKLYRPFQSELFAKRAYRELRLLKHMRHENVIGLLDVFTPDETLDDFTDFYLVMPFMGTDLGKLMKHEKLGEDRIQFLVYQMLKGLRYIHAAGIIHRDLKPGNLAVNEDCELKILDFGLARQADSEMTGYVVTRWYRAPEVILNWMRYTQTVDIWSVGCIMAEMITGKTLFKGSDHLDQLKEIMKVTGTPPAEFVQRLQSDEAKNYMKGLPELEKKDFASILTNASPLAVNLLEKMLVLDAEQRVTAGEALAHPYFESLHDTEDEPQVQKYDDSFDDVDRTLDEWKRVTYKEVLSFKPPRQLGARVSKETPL
TEC (human), sequence (P42680 whole entry, looked up): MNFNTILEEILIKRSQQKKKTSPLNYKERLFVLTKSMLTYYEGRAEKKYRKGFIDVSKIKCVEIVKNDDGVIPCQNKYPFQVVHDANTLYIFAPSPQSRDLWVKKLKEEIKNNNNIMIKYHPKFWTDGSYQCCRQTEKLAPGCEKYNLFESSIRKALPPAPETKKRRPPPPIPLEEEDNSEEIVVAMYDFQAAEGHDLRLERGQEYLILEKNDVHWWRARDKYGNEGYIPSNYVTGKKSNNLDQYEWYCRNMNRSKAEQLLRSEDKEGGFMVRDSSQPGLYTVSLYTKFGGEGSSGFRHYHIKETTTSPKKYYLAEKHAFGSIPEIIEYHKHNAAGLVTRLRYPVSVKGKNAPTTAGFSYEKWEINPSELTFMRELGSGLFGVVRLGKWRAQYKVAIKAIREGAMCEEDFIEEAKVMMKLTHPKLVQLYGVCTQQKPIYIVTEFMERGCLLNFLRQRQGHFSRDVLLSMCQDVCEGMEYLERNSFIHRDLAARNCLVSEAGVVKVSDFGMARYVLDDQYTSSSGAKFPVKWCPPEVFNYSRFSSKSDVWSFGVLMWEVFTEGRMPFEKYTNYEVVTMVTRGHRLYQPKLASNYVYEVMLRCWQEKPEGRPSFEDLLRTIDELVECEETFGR
STK25 (human), sequence (O00506 whole entry, looked up): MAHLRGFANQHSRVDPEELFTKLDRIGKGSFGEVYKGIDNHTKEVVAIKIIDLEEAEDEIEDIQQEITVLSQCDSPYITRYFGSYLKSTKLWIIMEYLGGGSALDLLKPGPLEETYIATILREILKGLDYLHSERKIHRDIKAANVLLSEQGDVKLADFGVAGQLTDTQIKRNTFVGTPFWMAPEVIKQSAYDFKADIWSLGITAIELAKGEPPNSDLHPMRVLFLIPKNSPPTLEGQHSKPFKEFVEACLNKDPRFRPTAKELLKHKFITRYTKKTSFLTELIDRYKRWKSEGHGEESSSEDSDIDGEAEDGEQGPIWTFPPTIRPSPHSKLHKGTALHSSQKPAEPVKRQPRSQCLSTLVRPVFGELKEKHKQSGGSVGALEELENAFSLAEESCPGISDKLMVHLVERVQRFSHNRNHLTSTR
PIP4K2C (human), sequence (Q8TBX8 whole entry, looked up): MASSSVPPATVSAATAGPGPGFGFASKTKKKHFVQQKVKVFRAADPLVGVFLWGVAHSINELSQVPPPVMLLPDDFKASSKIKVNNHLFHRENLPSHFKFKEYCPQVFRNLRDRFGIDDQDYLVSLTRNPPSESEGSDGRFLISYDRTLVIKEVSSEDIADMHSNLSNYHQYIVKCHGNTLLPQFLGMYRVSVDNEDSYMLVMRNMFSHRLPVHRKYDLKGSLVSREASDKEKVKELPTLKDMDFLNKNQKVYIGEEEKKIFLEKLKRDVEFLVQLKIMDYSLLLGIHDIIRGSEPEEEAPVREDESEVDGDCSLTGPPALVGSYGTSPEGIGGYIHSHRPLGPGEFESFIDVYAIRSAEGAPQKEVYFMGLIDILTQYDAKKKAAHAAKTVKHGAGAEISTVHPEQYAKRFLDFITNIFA

Row | Structure (SMILES) | kinase still bound, per cent of control [1] [%] | kinase still bound, per cent of control [2] [%] | kinase still bound, per cent of control [4] [%] | kinase still bound, per cent of control [5] [%] | kinase still bound, per cent of control [7] [%] | kinase still bound, per cent of control [9] [%] | kinase still bound, per cent of control [10] [%] | kinase still bound, per cent of control [12] [%] | kinase still bound, per cent of control [13] [%] | kinase still bound, per cent of control [14] [%] | kinase still bound, per cent of control [15] [%] | kinase still bound, per cent of control [16] [%] | kinase still bound, per cent of control [17] [%] | kinase still bound, per cent of control [18] [%] | kinase still bound, per cent of control [19] [%] | kinase still bound, per cent of control [20] [%] | kinase still bound, per cent of control [21] [%] | kinase still bound, per cent of control [23] [%] | kinase still bound, per cent of control [24] [%] | kinase still bound, per cent of control [25] [%] | further results
1 | CCN(CCO)CCCOc1ccc2c(Nc3cc(CC(=O)Nc4cccc(F)c4)[nH]n3)ncnc2c1 | 58 | 76 | 100 | 51 | 54 | 100 | 78 | 51 | 100 | 100 | 70 | 43 | 100 | 100 | 90 | 93 | 89 | 71 | 29 | 100 | kinase still bound, per cent of control [3]: 25%; kinase still bound, per cent of control [6]: 72%; kinase still bound, per cent of control [8]: 46%; kinase still bound, per cent of control [11]: 35%; kinase still bound, per cent of control [22]: 100%; kinase still bound, per cent of control [26]: 100%; kinase still bound, per cent of control [27]: 77%; kinase still bound, per cent of control [28]: 99%; kinase still bound, per cent of control [29]: 80%; kinase still bound, per cent of control [30]: 1.4%; kinase still bound, per cent of control [31]: 69%; kinase still bound, per cent of control [32]: 66%; kinase still bound, per cent of control [33]: 97%; kinase still bound, per cent of control [34]: 100%; kinase still bound, per cent of control [35]: 69%; kinase still bound, per cent of control [36]: 84%; kinase still bound, per cent of control [37]: 100%
2 | CC(=O)c1c(C)c2cnc(Nc3ccc(N4CCNCC4)cn3)nc2n(C2CCCC2)c1=O | 98 | 47 | 99 | 1 | 13 | 2.9 | 98 | 24 | 100 | 100 | 63 | 93 | 39 | 75 | 5 | 14 | 59 | 22 | 2.1 | 100 | kinase still bound, per cent of control [38]: 100%; kinase still bound, per cent of control [26]: 98%; kinase still bound, per cent of control [27]: 40%; kinase still bound, per cent of control [28]: 78%; kinase still bound, per cent of control [29]: 95%; kinase still bound, per cent of control [30]: 16%; kinase still bound, per cent of control [31]: 1.2%; kinase still bound, per cent of control [32]: 34%; kinase still bound, per cent of control [33]: 40%; kinase still bound, per cent of control [34]: 50%; kinase still bound, per cent of control [35]: 40%; kinase still bound, per cent of control [36]: 0.05%; kinase still bound, per cent of control [37]: 82%
